Reference: PubChem BioAssay AID256 (DTP/NCI, 2004)
Where “and” joins values, the source holds several entries; their conditions need not be identical. Equal entries are not always repeated. Inconclusive results and toxic doses are left out. Rule for the calls: active = survival T/C of 150% or more; inactive = T/C below 125% in these data.

Test system: CD2F1 mice, L1210 leukemia ip, survival T/C
Experiment: NCI In Vivo Anticancer Drug Screen. Data for tumor model L1210 Leukemia (intraperitoneal) in CD2F1 (CDF1) mice
Details: higher = longer survival
In short: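 Transplantable tumor in mice; compound-treated vs vehicle-treated groups. Read-out = treated/control ratio of the measured endpoint.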

[1] = endpoint: mean survival time, dose: 100.0 mg/kg/injection, schedule: Q04DX003 (ip), vehicle: saline with Tween-80
[2] = endpoint: mean survival time, dose: 200.0 mg/kg/injection, schedule: Q04DX003 (ip), vehicle: saline with Tween-80
[3] = endpoint: mean survival time, dose: 400.0 mg/kg/injection, schedule: Q04DX003 (ip), vehicle: saline with Tween-80
[4] = endpoint: mean survival time, dose: 50.0 mg/kg/injection, schedule: Q01DX001 (ip), vehicle: saline with Tween-80
[5] = endpoint: mean survival time, dose: 100.0 mg/kg/injection, schedule: Q01DX001 (ip), vehicle: saline with Tween-80
[6] = endpoint: mean survival time, dose: 200.0 mg/kg/injection, schedule: Q01DX001 (ip), vehicle: saline with Tween-80
[7] = endpoint: mean survival time, dose: 100.0 mg/kg/injection, schedule: Q01DX001 (ip), vehicle: Klucel (hydroxypropylcellulose) (HPC)
[8] = endpoint: mean survival time, dose: 50.0 mg/kg/injection, schedule: Q01DX009 (ip), vehicle: saline with Tween-80
[9] = endpoint: mean survival time, dose: 100.0 mg/kg/injection, schedule: Q01DX009 (ip), vehicle: saline with Tween-80
[10] = endpoint: mean survival time, dose: 200.0 mg/kg/injection, schedule: Q01DX009 (ip), vehicle: saline with Tween-80
[11] = endpoint: mean survival time, dose: 400.0 mg/kg/injection, schedule: Q01DX009 (ip), vehicle: saline with Tween-80
[12] = endpoint: mean survival time, dose: 100.0 mg/kg/injection, schedule: Q04DX003 (ip), vehicle: saline
[13] = endpoint: mean survival time, dose: 200.0 mg/kg/injection, schedule: Q04DX003 (ip), vehicle: saline
[14] = endpoint: mean survival time, dose: 400.0 mg/kg/injection, schedule: Q04DX003 (ip), vehicle: saline

Measured: T/C

COc1nc(NC2OC(CO)C(O)C(O)C2O)c(I)c(=O)[nH]1 (stereo unspecified)
inactive: endpoint: median survival time, dose: 12.5 mg/kg/injection, schedule: Q01DX005 (ip), vehicle: saline 109 % of control | endpoint: median survival time, dose: 25.0 mg/kg/injection, schedule: Q01DX005 (ip), vehicle: saline 107 % of control | endpoint: median survival time, dose: 50.0 mg/kg/injection, schedule: Q01DX005 (ip), vehicle: saline 100 % of control | endpoint: median survival time, dose: 100.0 mg/kg/injection, schedule: Q01DX005 (ip), vehicle: saline 101 % of control | endpoint: median survival time, dose: 200.0 mg/kg/injection, schedule: Q01DX005 (ip), vehicle: saline 100 % of control

COc1ccc(O)c(C=O)c1
inactive: [1] 100 % of control | [2] 110 % of control | [3] 95 % of control

CCCCCCCCCCCCCCCCCC[N+]1(C)CCSCC1
inactive: endpoint: mean survival time, dose: 12.5 mg/kg/injection, schedule: Q01DX001 (ip), vehicle: saline with Tween-80 95 % of control | endpoint: mean survival time, dose: 25.0 mg/kg/injection, schedule: Q01DX001 (ip), vehicle: saline with Tween-80 103 % of control | [4] 104 % of control | [5] 91 % of control and 101 % of control | [6] 101 % of control and 110 % of control

Cc1nc(=S)c2ccccc2[nH]1
inactive: [7] 97 % of control | endpoint: mean survival time, dose: 200.0 mg/kg/injection, schedule: Q01DX001 (ip), vehicle: Klucel (hydroxypropylcellulose) (HPC) 94 % of control | endpoint: mean survival time, dose: 400.0 mg/kg/injection, schedule: Q01DX001 (ip), vehicle: Klucel (hydroxypropylcellulose) (HPC) 100 % of control

COc1ccc2cc3[n+](cc2c1OC)CCc1cc2c(cc1-3)OCO2
inactive: endpoint: mean survival time, dose: 5.0 mg/kg/injection, schedule: Q01DX009 (ip), vehicle: saline with Tween-80 106 % of control | endpoint: mean survival time, dose: 5.0 mg/kg/injection, schedule: Q04DX003 (ip), vehicle: saline with Tween-80 98 % of control | endpoint: mean survival time, dose: 10.0 mg/kg/injection, schedule: Q01DX009 (ip), vehicle: saline with Tween-80 93 % of control | endpoint: mean survival time, dose: 10.0 mg/kg/injection, schedule: Q04DX003 (ip), vehicle: saline with Tween-80 96 % of control | endpoint: mean survival time, dose: 20.0 mg/kg/injection, schedule: Q04DX003 (ip), vehicle: saline with Tween-80 94 % of control

O=C1Nc2ccc3c4c(ccc1c24)CC3
inactive: [5] 105 % of control | endpoint: mean survival time, dose: 400.0 mg/kg/injection, schedule: Q01DX001 (ip), vehicle: saline with Tween-80 94 % of control

C=C(C)C12CC(C)C34OC5(CCCCCCCC(C)C6C(C)C(OC(=O)c7ccccc7)C(O)(C(O)C7(COC(=O)CCCCCCCCCCCCCCC)OC7C3C1O5)C64)O2 (stereo unspecified)
inactive: endpoint: mean survival time, dose: 1.5 micrograms/kg/injection, schedule: Q01DX009 (ip), vehicle: saline 103 % of control | endpoint: mean survival time, dose: 3.1 micrograms/kg/injection, schedule: Q01DX009 (ip), vehicle: saline 104 % of control | endpoint: mean survival time, dose: 6.2 micrograms/kg/injection, schedule: Q01DX009 (ip), vehicle: saline 97 % of control | endpoint: mean survival time, dose: 12.5 micrograms/kg/injection, schedule: Q01DX009 (ip), vehicle: saline 104 % of control | endpoint: mean survival time, dose: 25.0 micrograms/kg/injection, schedule: Q01DX009 (ip), vehicle: saline 95 % of control | endpoint: mean survival time, dose: 50.0 micrograms/kg/injection, schedule: Q01DX009 (ip), vehicle: saline 101 % of control

O=C(O)C1C2c3cccc4cccc(c34)C12 (stereo unspecified)
inactive: [8] 101 % of control | [9] 97 % of control | [1] 101 % of control | [10] 109 % of control | [2] 101 % of control

COC(=O)c1ccccc1NC(=O)/C=C/C(=O)O
inactive: endpoint: mean survival time, dose: 50.0 mg/kg/injection, schedule: Q01DX009 (ip), vehicle: saline 94 % of control | endpoint: mean survival time, dose: 100.0 mg/kg/injection, schedule: Q01DX009 (ip), vehicle: saline 88 % of control | [1] 98 % of control | endpoint: mean survival time, dose: 200.0 mg/kg/injection, schedule: Q01DX009 (ip), vehicle: saline 90 % of control | [2] 95 % of control

C[CH2][Sn]([Cl])([Cl])[Cl].Oc1ccccc1C=NCCN=Cc1ccccc1O
inactive: [8] 100 % of control | [9] 95 % of control | [1] 98 % of control | [10] 97 % of control | [2] 89 % of control

Cc1nc(N)nc2c1CCC(O)S2 (stereo unspecified)
inactive: endpoint: mean survival time, dose: 25.0 mg/kg/injection, schedule: Q01DX001 (ip), vehicle: Klucel (hydroxypropylcellulose) (HPC) 96 % of control | endpoint: mean survival time, dose: 50.0 mg/kg/injection, schedule: Q01DX001 (ip), vehicle: Klucel (hydroxypropylcellulose) (HPC) 96 % of control | [7] 96 % of control

CC(Cc1ccccc1)NC=O (stereo unspecified)
inactive: [8] 97 % of control | [9] 97 % of control

C=CCNC(=S)N/N=C\c1cc(OC)c(OC)c(OC)c1
inactive: [9] 93 % of control | [10] 97 % of control | [11] 106 % of control

O=C(O)c1ccc(OCCOc2ccccc2)cc1
inactive: endpoint: mean survival time, dose: 66.0 mg/kg/injection, schedule: Q04DX003 (ip), vehicle: saline sonified 101 % of control | endpoint: mean survival time, dose: 100.0 mg/kg/injection, schedule: Q04DX003 (ip), vehicle: saline sonified 96 % of control | endpoint: mean survival time, dose: 150.0 mg/kg/injection, schedule: Q04DX003 (ip), vehicle: saline sonified 107 % of control

CCCCn1c(C)nc2c([N+](=O)[O-])cc(C(F)(F)F)cc21
inactive: [4] 95 % of control | [5] 98 % of control | [6] 95 % of control

CC(C#N)(Nc1ccccc1)c1ccccc1 (stereo unspecified)
inactive: [12] 102 % of control | [13] 103 % of control | [14] 96 % of control

O=C1OC(=O)C2CCCC3CCCC1C32 (stereo unspecified)
inactive: endpoint: mean survival time, dose: 100.0 mg/kg/injection, schedule: Q04DX002 (ip), vehicle: saline with Tween-80 108 % of control | endpoint: mean survival time, dose: 200.0 mg/kg/injection, schedule: Q04DX002 (ip), vehicle: saline with Tween-80 108 % of control

NCCCCCCN=C(N)C(N)=NCCCCCCN
inactive: endpoint: mean survival time, dose: 3.13 mg/kg/injection, schedule: Q04DX002 (ip), vehicle: saline 116 % of control | endpoint: mean survival time, dose: 6.25 mg/kg/injection, schedule: Q04DX002 (ip), vehicle: saline 90 % of control | endpoint: mean survival time, dose: 12.5 mg/kg/injection, schedule: Q04DX002 (ip), vehicle: saline 101 % of control

OCCNCCO
inactive: [9] 93 % of control | [1] 97 % of control | [10] 93 % of control | [2] 103 % of control | [11] 96 % of control | [3] 107 % of control

O=C1CCSc2ccccc21
inactive: endpoint: mean survival time, dose: 75.0 mg/kg/injection, schedule: Q01DX009 (ip), vehicle: saline with Tween-80 95 % of control | [1] 104 % of control | [12] 100 % of control | endpoint: mean survival time, dose: 150.0 mg/kg/injection, schedule: Q01DX009 (ip), vehicle: saline with Tween-80 102 % of control | [2] 101 % of control | [13] 100 % of control | endpoint: mean survival time, dose: 300.0 mg/kg/injection, schedule: Q01DX009 (ip), vehicle: saline with Tween-80 96 % of control | [3] 102 % of control | [14] 100 % of control

CCOC(=O)c1c(-c2ccccc2)[nH]c2ccccc2c1=O
inactive: [1] 96 % of control | [2] 98 % of control | [3] 95 % of control

C=CC1=CC(=O)OC1=O
inactive: endpoint: mean survival time, dose: 1.25 mg/kg/injection, schedule: Q01DX001 (ip), vehicle: saline 91 % of control | endpoint: mean survival time, dose: 2.5 mg/kg/injection, schedule: Q01DX001 (ip), vehicle: saline 88 % of control | endpoint: mean survival time, dose: 5.0 mg/kg/injection, schedule: Q01DX001 (ip), vehicle: saline 89 % of control | endpoint: mean survival time, dose: 10.0 mg/kg/injection, schedule: Q01DX001 (ip), vehicle: saline 89 % of control

CCCCC(=O)N(c1ccc(Nc2c3ccccc3nc3cc([N+](=O)[O-])ccc23)cc1)S(C)(=O)=O
active: [12] 167 % of control
inactive: endpoint: mean survival time, dose: 2.1 mg/kg/injection, schedule: Q04DX003 (ip), vehicle: Klucel (hydroxypropylcellulose) (HPC) 117 % of control | endpoint: mean survival time, dose: 25.0 mg/kg/injection, schedule: Q01DX009 (ip), vehicle: saline with Tween-80 96 % of control | [1] 98 % of control | endpoint: mean survival time, dose: 150.0 mg/kg/injection, schedule: Q04DX003 (ip), vehicle: saline with Tween-80 93 % of control | [13] 113 % of control

Oc1ccc(Br)cc1/C=N/c1nc(-c2ccccc2)cs1.Oc1ccc(Br)cc1/C=N/c1nc(-c2ccccc2)cs1.[Co]
inactive: endpoint: mean survival time, dose: 100.0 mg/kg/injection, schedule: Q01DX001 (ip), vehicle: saline 100 % of control | endpoint: mean survival time, dose: 200.0 mg/kg/injection, schedule: Q01DX001 (ip), vehicle: saline 89 % of control
